What was measured:
[1] = test system: coronary-perfused canine right (RV) and left (LV) ventricular wedge models of JWS; assay: Coronary-perfused ventricular wedge models of the J wave syndromes (NS5806 alone or with verapamil); design: QT interval / T wave amplitude / Epi (APD50) / Epi (APD90): unit not given here
Description: Ten hearts from purpose-bred adult male mongrel dogs (20-22 kg) were acquired from Covance (Denver, PA) and another 10 hearts from purpose-bred adult male Beagle dogs (10-16 kg) were obtained from Envigo (Denver, PA). Dogs were sedated with ketamine (10 mg/kg, IM) and xylazine 2 (mg/kg, IM). Prior to euthanasia (Euthasol solution: pentobarbital sodium and phenytoin sodium; 0.22 ml/kg, IV), and heparin (human pharmaceutical grade, 1,000 U/kg, IV) were administered 3-4 min before isolation of the hearts via a left thoracotomy. Retrograde aortic perfusion of the hearts with ice-cold cardioplegic solution (modified K-H solution; 16 mM KCl) was immediately performed to rinse the coronary vasculature of blood. The hearts were then placed in a sealed container containing ice-cold cardioplegic solution and transported to our institution via private courier in an insulated package filled with icepacks.
Transmural wedges were dissected from the base of the RV and LV. During the cannulation procedure, preparations were initially arterially perfused with cardioplegic solution. Next, the wedge preparations were placed in a tissue bath and perfused with a modified Krebs-Henseleit solution (K—H) bubbled with 95% O2/5% CO2 warmed to 37° C. The composition of K—H was (in mM): 118 NaCl, 4 KCl, 2 CaCl2, 1.2 MgSO4, 24 NaHCO3, 1.2 NaH2PO4, 2 Na Pyruvate and 10 D-Glucose. The perfusate was delivered at a constant pressure (45-50 mmHg). A transmural pseudo-ECG (ECG) was recorded using two Ag/AgCl half cells placed at ˜1 cm from the Epi (+) and Endo (−) surfaces along the same axis as the transmembrane action potential (AP) recordings. APs were simultaneously recorded from the immediate sub-Epi and M cell region (˜2-3 mm from the Endo surface) using floating glass microelectrodes. Pacing was applied to the Endo surface using bipolar silver electrodes insulated except at the tips (Basic Cycle Lengths [BCLs]: 500-2,000 ms). A detailed description of the arterially-perfused ventricular wedge preparation has been previously published.^5 ECG and AP signals were digitized and analyzed using Spike 2 for Windows (Cambridge Electronic Design, Cambridge, UK).
We used the Ito-agonist NS5806 (5-10 μM) alone or with the calcium-channel blocker verapamil (2.5 μM) to pharmacologically mimic the effects of the ion channel genetic defects underlying ERS and BrS. These provocative agents were added to the coronary perfusate in increasing concentrations until the characteristic ECG phenotypes were unmasked, including phase 2 reentry (P2R), closely coupled premature beats (CCPBs) and/or pVT/VF. AR-787 was added to the perfusate to test its ability to suppress or prevent arrhythmogenesis.

KV11.1 (hERG-IKr) = biological target: T1, KV11.1 (hERG-IKr) (Homo sapiens, UniProt Q12809); assay: Whole-cell patch clamp of IKr in HEK cells stably expressing hERG; format: cell-based; settings: 50 μM
T1 construct: stably expressing hERG channels (NM_000238); expressed in transfected cells
Description: Human Embryonic Kidney (HEK) cells stably expressing hERG channels (NM_000238) were used to evaluate the effect of AR-787 on IKr. The HEK cells were cultured in vented flasks using standard methods. The culture media consisted of MEM α-modified, 10% FBS, 1% L-glutamine, 1% pen-strep and 0.4% G418 (Geneticin). Cells were passaged at 50% confluence.
For electrophysiological study, cells were released from culture with trypsin, rinsed with Ca^2+-free external solution and maintained on ice until used (up to 4 hr). An aliquot of cells was place in a chamber on an inverted microscope (Nikon Diaphot) and perfused with external solution at a rate of 1 ml/min at room temperature. The external solution contained in (mM): 140 NaCl, 5 KCl, 2 CaCl2, 1 MgCl2, 10 HEPES and 10 glucose at pH 7.4 (adjusted with NaOH). Membrane currents recorded with an Axopatch 200B amplifier controlled by Clampex software were digitized at a sampling rate of 10 kHz and filtered at 2 kHz. Micropipettes were fabricated from borosilicate glass and generally had resistances of 1.8-2.4 MΩ when filled with internal solution consisting of (mM): 140 KCl, 1 MgCl2, 5 Na2ATP, 10 HEPES and 10 EGTA (pH 7.3 adjusted with KOH; 300 mOsm). Pipette offset and stray capacitance were compensated with the pipette in the bath solution before seal formation. After achieving cell access, whole-cell capacitance and series resistance were compensated optimally. Series resistance prediction and correction were usually adjusted to 85% or higher leaving an uncompensated series resistance of less than 1 MΩ and voltage errors estimated to be less than 5 mV. Voltage protocols and currents were recorded on a computer for offline analysis using Clampfit and GraphPad software.
IKr was measured using a two-step protocol. Voltage steps of 4 sec duration were applied at 20 sec intervals from a holding potential of −80 mV to −60 to +40 mV in 10 mV steps, followed by a 4 sec step to −50 mV to record the tail currents. […] The step protocol consisted of a voltage step from a holding potential of −80 mV to a test potential of +10 mV for 4 sec then to −50 mV for 4 second. It was repeated at 20 sec intervals. The step protocol was maintained until the current response achieved a stable level (5-7 min). The I-V protocol was then repeated.
For analysis, the following were determined: 1) currents averaged over the last 100 ms of the first voltage clamp step (−60 to +40 mV) and 2) peak tail current during the second voltage clamp step (at −50 mV). These were divided by cell capacitance to normalize for cell size (pA/pF). The time course of tail current […] was fit with a single exponential function using Clampfit. The voltage dependence of activation was determined from tail currents by dividing current value at each voltage by the maximum value for each I-V protocol. Values of current were averaged among cells and expressed as a mean ±SEM.

[2] = AR-787 10 μM following NS5806 5-10 μM, 3 LV wedges, BCL 800 msec

T1 sequence (Q12809 whole entry): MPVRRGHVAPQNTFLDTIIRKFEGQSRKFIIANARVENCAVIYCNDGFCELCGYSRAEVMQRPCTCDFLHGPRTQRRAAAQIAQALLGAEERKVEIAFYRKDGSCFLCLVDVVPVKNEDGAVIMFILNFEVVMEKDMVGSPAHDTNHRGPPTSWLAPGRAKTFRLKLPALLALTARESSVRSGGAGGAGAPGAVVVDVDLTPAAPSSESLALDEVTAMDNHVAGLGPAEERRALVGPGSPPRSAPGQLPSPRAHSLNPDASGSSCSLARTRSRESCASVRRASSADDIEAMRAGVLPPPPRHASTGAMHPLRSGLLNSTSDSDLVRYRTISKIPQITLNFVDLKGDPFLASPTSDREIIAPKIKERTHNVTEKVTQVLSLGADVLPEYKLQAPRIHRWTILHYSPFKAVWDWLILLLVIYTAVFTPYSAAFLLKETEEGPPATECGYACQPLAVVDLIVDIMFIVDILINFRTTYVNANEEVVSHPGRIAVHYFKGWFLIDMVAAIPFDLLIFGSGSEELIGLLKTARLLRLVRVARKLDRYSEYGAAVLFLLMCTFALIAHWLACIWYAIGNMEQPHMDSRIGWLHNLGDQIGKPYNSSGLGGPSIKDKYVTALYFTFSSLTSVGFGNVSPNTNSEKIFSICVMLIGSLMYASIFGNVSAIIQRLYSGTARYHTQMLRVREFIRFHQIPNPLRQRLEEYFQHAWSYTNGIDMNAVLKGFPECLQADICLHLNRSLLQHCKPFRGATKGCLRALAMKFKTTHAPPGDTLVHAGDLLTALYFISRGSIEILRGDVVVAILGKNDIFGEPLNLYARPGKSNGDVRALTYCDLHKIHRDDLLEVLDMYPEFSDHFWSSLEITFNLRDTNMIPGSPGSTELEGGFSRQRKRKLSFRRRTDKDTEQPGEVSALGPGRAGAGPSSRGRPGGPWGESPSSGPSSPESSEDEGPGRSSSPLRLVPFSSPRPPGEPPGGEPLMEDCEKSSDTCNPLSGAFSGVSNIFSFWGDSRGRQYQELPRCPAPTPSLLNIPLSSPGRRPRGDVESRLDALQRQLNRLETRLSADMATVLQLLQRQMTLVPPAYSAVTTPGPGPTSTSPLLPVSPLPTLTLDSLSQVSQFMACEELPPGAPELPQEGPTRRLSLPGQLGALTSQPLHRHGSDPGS

Cc1nc(-n2cccc2)sc1C(=O)N=c1[nH]c2ccccc2[nH]1 [AR-787, N-(1H-benzimidazol-2-yl)-4-methyl-2-pyrrol-1-yl-thiazole-5-carboxamide]
effect on NS5806-induced J wave syndrome phenotype ([1]; AR-787 10 μM after NS5806 5-10 μM): reversed these effects induced by NS5806 | Epi (APD50) [1, 2]: 173.9 ± 7.8 | Epi (APD90) [1, 2]: 209.0 ± 8.1 | J wave amplitude [1, 2]: 8.7 ± 5.7 | M (APD50) [1, 2]: 179.0 ± 11.4 | M (APD90) [1, 2]: 235.0 ± 11.1 | Ph1 mag (% Ph0) [1, 2]: 25.4 ± 4.9 % Ph0 | QT interval [1, 2]: 254.3 ± 10.0 | T wave amplitude [1, 2]: 19.0 ± 1.8 | manifestation of AP notch and ECG J wave ([1]; AR-787 1, 10 and 50 μM after NS5806 10 μM, LV and RV wedges): concentration-dependent diminution in the manifestation of the AP notch and associated ECG J wave | QT interval ([1]; AR-787 1, 10 or 50 μM, NS5806 5-10 μM, five wedges): unaffected | effect on NS5806-augmented Epi Ph1 magnitude and J wave amplitude ([1]; AR-787 1, 10 or 50 μM, NS5806 5-10 μM, five wedges (4 LV and 1 RV)): readily reversed the effect of NS5806 | ECG and arrhythmic manifestations (extrasystole, polymorphic VT) in ERS model ([1]; LV wedge, NS5806 10 μM and verapamil 2.5 μM, AR-787 10 μM, 30 min): reduced Phase 1 magnitude, restored the AP dome and totally suppressed all arrhythmic activity | restoration of AP dome and suppression of Phase 2 reentry extrasystoles ([1]; RV wedge, 40 min NS5806 10 μM, AR-787 50 μM but not 10 μM): effective in fully restoring the AP dome and in totally suppressing this arrhythmic activity | amplitude of the developing IKr (KV11.1 (hERG-IKr)): enhanced between −60 to −20 mV and reduced above 0 mV | rates of inactivation of IKr tail currents (KV11.1 (hERG-IKr)): significantly slowed at positive voltages | reduction in IKr peak tail current (KV11.1 (hERG-IKr)): 50% | shift in the voltage dependence of both developing and tail currents (IKr) (KV11.1 (hERG-IKr)): −20 mV | shift of voltage-dependence of activation (IKr) (KV11.1 (hERG-IKr)): −25 mV

From US20250228824A1, “COMPOSITIONS AND METHODS FOR INHIBITION OF ITO AS TREATMENT FOR THE J WAVE SYNDROMES AND HYPOTHERMIA” (Lankenau Institute for Medical Research, priority 2021, published 2025)
